Results on 6 molecules are retold here after ChEMBL document CHEMBL2073762, “Carrier-mediated mechanism for the biliary excretion of the quinolone antibiotic grepafloxacin and its glucuronide in rats” (J Pharmacol Exp Ther, 1998).

Data set [1] addresses T1, ATP-binding cassette sub-family C member 2 (Rattus norvegicus, UniProt Q63120). Description: TP_TRANSPORTER: inhibition of DNP-SG uptake in bile canalicular membrane vesicles from SD rat. It counts as functional, cell membranes, Sprague-Dawley, Bile canalicular membrane vesicle.
In data set [2] the target is T1, ATP-binding cassette sub-family C member 2. Description: TP_TRANSPORTER: uptake in bile canalicular membrane vesicles from EHBR rat. It is filed as functional, cell membranes, Bile canalicular membrane vesicle.
The target is the same in data set [3]. Kind of data set: TP_TRANSPORTER: uptake in bile canalicular membrane vesicles from SD rat. It counts as functional, cell membranes, Sprague-Dawley, Bile canalicular membrane vesicle.
For data set [4] the target is unchanged. Kind of data set: TP_TRANSPORTER: inhibition of DNP-SG uptake (DNP-SG: 1 uM, LFLX: 10000uM) in bile canalicular membrane vesicles from SD rat. It counts as functional, cell membranes, Sprague-Dawley, Bile canalicular membrane vesicle.
For data set [5] the target is unchanged. Kind of data set: TP_TRANSPORTER: inhibition of DNP-SG uptake (DNP-SG: 1 uM, LFLX: 10000uM) in bile canalicular membrane vesicles from EHBR rat. It is filed as functional, cell membranes, Bile canalicular membrane vesicle.
For data set [6] the target is unchanged. Kind of data set: TP_TRANSPORTER: inhibition of DNP-SG uptakee (DNP-SG: 1 uM, OFLX: 10000 uM) in bile canalicular membrane vesicles from SD rat. It counts as functional, cell membranes, Sprague-Dawley, Bile canalicular membrane vesicle.
Data set [7] shares this target. Kind of data set: TP_TRANSPORTER: inhibition of DNP-SG uptakee (DNP-SG: 1 uM, SPFX: 3000 uM) in bile canalicular membrane vesicles from SD rat. Details: scale not given: the % may be the effect or the level left. It counts as functional, cell membranes, Sprague-Dawley, Bile canalicular membrane vesicle.
Data set [8] concerns the target ATP-binding cassette sub-family C member 2 (ABCC2/Mrp2) (Rattus norvegicus, UniProt Q63120). Kind of data set: TP_TRANSPORTER: inhibition of DNP-SG uptakee (DNP-SG: 1 uM, SPFX: 3000 uM) in bile canalicular membrane vesicles from EHBR rat. Details: scale not given: the % may be the effect or the level left. The conditions noted are these: probe DNP-SG (1 uM), read-out: Activity. It is filed as functional, cell membranes, Bile canalicular membrane vesicle.

Substrate in data set [9]: Cc1c(F)c(N2CCNC(C)C2)cc2c1c(=O)c(C(=O)O[C@@H]1O[C@H](C(=O)O)[C@@H](O)[C@H](O)[C@H]1O)cn2C1CC1
Description: TP_TRANSPORTER: uptake, high affinity component in bile canalicular membrane vesicles from SD rat. It counts as functional, cell membranes, Sprague-Dawley, Bile canalicular membrane vesicle.

With `Cc1c(F)c(N2CCNC(C)C2)cc2c1c(=O)c(C(=O)O[C@@H]1O[C@H](C(=O)O)[C@@H](O)[C@H](O)[C@H]1O)cn2C1CC1` (stereo not given in full) [GREPAFLOXACIN GLUCURONIDE], the inhibition constant (Ki) in [1] was found to be 9.2 µM.

Take `Cc1c(F)c(N2CCNC(C)C2)cc2c1c(=O)c(C(=O)O)cn2C1CC1` (stereo not given) [GREPAFLOXACIN]: the Activity result in data set [2] and in data set [3] was “substrate [+]” throughout. In [1], the Ki worked out at 1890 µM.

Consider `CCn1cc(C(=O)O)c(=O)c2cc(F)c(N3CCNC(C)C3)c(F)c21` (stereo not given) [LOMEFLOXACIN], for which the Activity entry in data set [4] and in data set [5] was “inhibitor [(at a rough estimate) 50 % of control]” throughout.

Consider `CC1COc2c(N3CCN(C)CC3)c(F)cc3c(=O)c(C(=O)O)cn1c23` (stereo not given) [OFLOXACIN], for which the Activity entry in [6] was “inhibitor [(at a rough estimate) 50 % of control]”.

Molecule `C[C@@H]1CN(c2c(F)c(N)c3c(=O)c(C(=O)O)cn(C4CC4)c3c2F)C[C@H](C)N1` [SPARFLOXACIN] yielded an Activity in [7] of 60%. Moreover, the activity at 3000 µM in data set [8] amounted to 60%.

B1: ATP-binding cassette sub-family C member 2 (Rattus norvegicus) (protein)
chain: MDKFCNSTFWDLSLLESPEADLPLCFEQTVLVWIPLGFLWLLAPWQLYSVYRSRTKRSSITKFYLAKQVFVVFLLILAAIDLSLALTEDTGQATVPPVRYTNPILYLCTWLLVLAVQHSRQWCVRKNSWFLSLFWILSVLCGVFQFQTLIRALLKDSKSNMAYSYLFFVSYGFQIVLLILTAFSGPSDSTQTPSVTASFLSSITFSWYDRTVLKGYKHPLTLEDVWDIDEGFKTRSVTSKFEAAMTKDLQKARQAFQRRLQKSQRKPEATLHGLNKKQSQSQDVLVLEEAKKKSEKTTKDYPKSWLIKSLFKTFHVVILKSFILKLIHDLLVFLNPQLLKLLIGFVKSSNSYVWFGYICAILMFAVTLIQSFCLQSYFQHCFVLGMCVRTTVMSSIYKKALTLSNLARKQYTIGETVNLMSVDSQKLMDATNYMQLVWSSVIQITLSIFFLWRELGPSILAGVGVMVLLIPVNGVLATKIRNIQVQNMKNKDKRLKIMNEILSGIKILKYFAWEPSFQEQVQGIRKKELKNLLRFGQLQSLLIFILQITPILVSVVTFSVYVLVDSANVLNAEKAFTSITLFNILRFPLSMLPMVTSSILQASVSVDRLERYLGGDDLDTSAIRRVSNFDKAVKFSEASFTWDPDLEATIQDVNLDIKPGQLVAVVGTVGSGKSSLVSAMLGEMENVHGHITIQGSTAYVPQQSWIQNGTIKDNILFGSEYNEKKYQQVLKACALLPDLEILPGGDMAEIGEKGINLSGGQKQRVSLARAAYQDADIYILDDPLSAVDAHVGKHIFNKVVGPNGLLAGKTRIFVTHGIHFLPQVDEIVVLGKGTILEKGSYRDLLDKKGVFARNWKTFMKHSGPEGEATVNNDSEAEDDDDGLIPTMEEIPEDAASLAMRRENSLRRTLSRSSRSSSRRGKSLKNSLKIKNVNVLKEKEKEVEGQKLIKKEFVETGKVKFSIYLKYLQAVGWWSILFIILFYGLNNVAFIGSNLWLSAWTSDSDNLNGTNNSSSHRDMRIGVFGALGLAQGICLLISTLWSIYACRNASKALHGQLLTNILRAPMRFFDTTPTGRIVNRFSGDISTVDDLLPQTLRSWMMCFFGIAGTLVMICMATPVFAIIIIPLSILYISVQVFYVATSRQLRRLDSVTKSPIYSHFSETVTGLPIIRAFEHQQRFLAWNEKQIDINQKCVFSWITSNRWLAIRLELVGNLVVFCSALLLVIYRKTLTGDVVGFVLSNALNITQTLNWLVRMTSEAETNIVAVERISEYINVENEAPWVTDKRPPADWPRHGEIQFNNYQVRYRPELDLVLKGITCNIKSGEKVGVVGRTGAGKSSLTNCLFRILESAGGQIIIDGIDVASIGLHDLRERLTIIPQDPILFSGSLRMNLDPFNKYSDEEVWRALELAHLRSFVSGLQLGLLSEVTEGGDNLSIGQRQLLCLGRAVLRKSKILVLDEATAAVDLETDSLIQTTIRKEFSQCTVITIAHRLHTIMDSDKIMVLDNGKIVEYGSPEELLSNRGSFYLMAKEAGIENVNHTEL
For B1, the Km in data set [9] was determined as 7.2 µM.
